Columns and labels:
[1] = Pharmacokinetic study in rat (plasma, CSF, brain); assay type: in vivo; details: male, Sprague-Dawley, oral dose of 40 mg/kg
Excerpt: For a compound provided herein to be an effective TTR stabilizer drug to halt and/or prevent the ocular and cerebral TTR amyloid deposition TTR amyloidosis, it has to be able to penetrate into the brain and CSF (surrogate for eye penetration) and deliver a sufficient amount of TTR stabilizer to stop TTR dissociation. A pharmacokinetic study in rat is used to evaluate the compounds. Male Sprague-Dawley (SD) rats (200-220 g weight) are acclimated for at least 2 to 3 days before being placed on study. All animals will have access to certified rodent diet and water at libitum. […] For IV dosing, the test compound is administered via tail vein or indwelling cannula. For oral dosing, the test compound is administered by oral gavage. Blood and CSF samples are collected at selected timepoints. Blood collection is performed from saphenous vein or tail vein of each animal into polypropylene tubes at each timepoint. […] The weight of brain samples is recorded. […] Using a LC-MSMS method for the quantitative determination of test compound in biological matrixes, amount of test compound and active agent are measured in plasma and CSF at selected timepoints post-dosing and in brain at 24 hrs post dosing. Plasma concentration versus time data is analyzed by non-compartmental approaches using the Phoenix WinNonlin 6.3 software program. […]

[2] = In vitro rat liver S9 stability assay (formation of AG10); assay type: in vitro ADME; details: rat liver S9, 1 μM test compound, 37° C.
Procedure: The test compound was added to liver S9 and incubated at 37° C. in a water bath at a concentration of 1 μM. At each time point (0, 5, 10, 20, 30 and 60 min), stop solution (tolbutamide plus labetalol) was added to precipitate protein and mixed thoroughly. After centrifugation, an aliquot of supernatant was analyzed by LC-MS/MS. The percentage of formation of active agent was calculated at each time point.

[3] = tafamidis-treated FAP patients, cited from earlier work

Cc1n[nH]c(C)c1CCCOc1cc(C(=O)O)ccc1F [AG10, acoramidis] gave a Kp ([1]; CSF and plasma, over 24 hrs, read-out: CSF to plasma ratio over 24 hrs) of about 0.009 and a Kp at 24 h ([1]; brain and plasma, at 24 hrs, read-out: brain to plasma ratio at 24 hrs) of about 0.008.
For Cc1n[nH]c(C)c1CCCOc1cc(C(=O)OC2CCN(C)C2)ccc1F (centres unmarked) [Compound 2, 1-methylpyrrolidin-3-yl 3-(3-(3,5-dimethyl-1H-pyrazol-4-yl)propoxy)-4-fluorobenzoate], the “Formation of AG10 at 60 min” value [2] was “A (A is <25%)”.
In the case of O=C(O)c1ccc2nc(-c3cc(Cl)cc(Cl)c3)oc2c1 [tafamidis], the “tafamidis level in CSF relative to that in plasma” value ([3]; CSF) is given as 2%, the “tafamidis/TTR stoechimetric ratio in CSF” value ([3]; CSF) is given as at most 1 and the “tafamidis/TTR stoechimetric ratio in plasma” value ([3]; plasma) is given as 2.4. For the same compound, the “tafamidis level in vitreous relative to that in plasma” value ([3]; vitreous) was 0.5% and the “tafamidis/TTR stoechimetric ratio in vitreous” value ([3]; vitreous) was at most 1.
